Values quoted from earlier work, collected in patent US10947168B2, “Solvent systems for dicyandiamide and/or alkyl thiophosphoric triamide and use in agricultural applications” (RHODIA OPERATIONS, priority 2014, dated 2021).

In the case of `N#CNC(=N)N` [Dicyandiamide], the solubility in water is listed as “about 41 g/l”.
